The source of these data is patent publication US9604947B2, “Substituted 5-imino-1,2,4-thiadiazoles that can be used to treat neurodegenerative diseases” (CONSEJO SUPERIOR DE INVESTIGACIONES CIENTIFICAS (CSIC), priority 2009, dated 2017).

Structures can show the parent of a compound that is named as a salt. Where two headings read alike, the source gives them in different places.

The target of one data set is T1, PDE7A1 (Homo sapiens, UniProt Q13946).
T1 construct: purchased Calbiochem 524751
The experiment in a line: Determination of PDE7 inhibition (SPA, [3H]cAMP). It counts as biochemical. The note with it: for IC50: read-out: IC50 (PDE7A). As for the experimental part: PDE-7 inhibition was performed with a commercial kit for the determination of phosphodiesterase activity (GE Healthcare Life Sciences, cat#TRKQ7090).
The compounds to be evaluated were incubated (in concentrations between 0.1 nM and 100 μM) in presence of 0.02 U/well of PDE7A1 (Calbiochem cat#524751) and 0.05 μCi of [^3H] cAMP, for 20 min at 30° C. in the assay buffer of kit (total volume=100 μl).
After this time, 50 μl of a suspension of 20 mg/ml microspheres of SPA of Ytrium silicate were added and was maintained under stirring at room temperature for 60 min. Finally, the plate was settled for 20 min and radioactivity was detected in a Microbeta Trilux reader.
In every assay there were included two points without PDE7A1 (blank) and two points with PDE7A1 without inhibitors (control).
Data Analysis: All the compounds were evaluated firstly at the concentration of 10 μM and the percentage of PDE7A1 inhibition was calculated, according to the following formula (cpm=counts per minute): % Inhibition=((cpm control−cpm sample)×100)/(cpm control−cpm blank assay).
For those compounds with % inhibition values above 45% it was calculated its inhibitory potency (IC50) building the dose-response curve.
The data were adjusted with the software Prism v 2.1 (GraphPad Software) using the non lineal fitting.

The nature of the next data set: in vitro. The procedure: Ten commercial reference drugs, phosphate buffer saline solution at pH 7.4 (PBS), DMSO and dodecane were purchased from Sigma, Acros organics, Aldrich and Fluka. […] Filter PDVF membrane units (diameter 30 mm, pore size 0.45 μm) from Symta were used to filtered the samples. A 96-well plate UV reader (Thermoscientific, Multiskan spectrum) was used for the UV measurements. […] These solutions were filtered. The acceptor 96-well microplate was filled with 180 μL of PBS:DMSO (95:5). The donor 96-well plate was coated with 4 μL of porcine brain lipid in dodecane (20 mg mL^−1) and after 5 minutes, 180 μL of each compound solution was added. 1-2 mg of every compound to be determined their ability to pass the BBB were dissolved in 250 μL of DMSO and 4750 μL of PBS pH 7.4 buffer, filtered and then added to the donor 96-well plate. Then the donor plate was carefully put on the acceptor plate to form a “sandwich”, which was left undisturbed for 4 h at 25° C.
During this time the compounds diffused from the donor plate through the brain lipid membrane into the acceptor plate. After incubation, the donor plate was removed. The concentration of compounds and commercial drugs in the acceptor and the donor wells was determined by UV plate reader. Every sample was analyzed from three to five wavelengths, in 3 wells and in at least three independent runs. […] 11 quality control compounds (previously mentioned) of known BBB permeability were included in each experiment to validate the analysis set.

Setting [1] is: 1,2,4-thiadiazoles-5-imino substituted as hydrobromides.
Where [2] appears, read: 1,2,4-thiadiazoles-5-imino substituted as hydrochlorides.

T1 sequence (Q13946 whole entry): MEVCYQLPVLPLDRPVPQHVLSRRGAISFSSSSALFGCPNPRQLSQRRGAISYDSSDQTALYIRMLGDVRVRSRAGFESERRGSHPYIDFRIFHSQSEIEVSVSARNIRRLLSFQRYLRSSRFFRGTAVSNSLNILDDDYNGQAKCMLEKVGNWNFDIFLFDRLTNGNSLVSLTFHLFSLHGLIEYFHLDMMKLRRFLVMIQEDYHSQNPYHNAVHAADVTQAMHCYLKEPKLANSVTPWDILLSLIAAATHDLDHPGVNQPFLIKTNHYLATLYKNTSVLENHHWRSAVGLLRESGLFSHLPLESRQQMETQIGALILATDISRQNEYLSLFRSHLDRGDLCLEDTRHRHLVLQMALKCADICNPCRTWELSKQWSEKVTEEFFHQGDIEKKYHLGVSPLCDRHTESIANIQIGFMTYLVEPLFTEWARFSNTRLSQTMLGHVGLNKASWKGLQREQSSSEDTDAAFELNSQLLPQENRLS

In general, IC50 refers to the concentration needed to halve the response being measured. For the compound `c1ccc(-c2nc(=NC3CCCCC3)sn2-c2ccccc2)cc1` [R1=Ph, R2=Ph, R3=Cy (hydrobromide)], on PDE7A1 (setting [1]), the IC50 turned out to be 1640 nM. As usually defined, the Papp is a coefficient for how fast a substance crosses the barrier. The low end stands for slow passage, the high end for fast passage. As to `Br.CCOC(=O)CN=c1nc(-c2ccccc2)n(-c2ccccc2)s1` [VP-1.16, 5-Ethoxycarbonylmethylimino-2,3-diphenyl-2,5-dihydro-1,2,4-thiadiazole hydrobromide], the “Prediction (predictive penetration in the CNS)” value (from here on “Prediction”) in the data set “in vitro” (PAMPA) is given as “CNS+”. In “in vitro” (PAMPA, pH 7.4), this compound yielded an apparent permeability (Papp) at 4 h of 6.2 ± 0.4 ×10⁻⁶ cm/s. Moreover, the IC50 on PDE7A1 (setting [1]) stood at 1130 nM.

For the compound `N=c1nc(-c2ccccc2)n(-c2ccccc2)s1` [R1=Ph, R2=Ph, R3=H (hydrobromide)], on PDE7A1 (setting [1]), the IC50 was determined as 1020 nM. As for `Br.CCOC(=O)CN=c1nc(-c2ccccc2)n(-c2ccc(OC)cc2)s1` [VP-1.62, 5-Ethoxycarbonylmethylimino-2-(4-methoxyphenyl)-3-phenyl-2,5-dihydro-1,2,4-thiadiazole hydrobromide], the “Prediction” value in “in vitro” (PAMPA) is given as “CNS+/CNS−”. In “in vitro” (PAMPA, pH 7.4), this compound displayed a Papp at 4 h of 4 ± 0.8 ×10⁻⁶ cm/s. In addition, the IC50 on PDE7A1 (setting [1]) amounted to 780 nM. Consider `c1ccc(N=c2nc(-c3ccccc3)n(-c3ccccc3)s2)cc1` [R1=Ph, R2=Ph, R3=Ph (hydrobromide), 2,3-Diphenyl-5-phenylimino-2,5-dihydro-1,2,4-thiadiazole hydrobromide], for which, on PDE7A1 (setting [1]), the IC50 was found to be 3030 nM.

For the compound `Br.COc1ccc(-n2sc(=NCCO)nc2-c2ccccc2)cc1` [VP-1.61, 5-(2-Hydroxyethylimino)-2-(4-methoxyphenyl)-3-phenyl-2,5-dihydro-1,2,4-thiadiazole hydrobromide], the “Prediction” value in “in vitro” (PAMPA) is on record as “CNS+”. For the same compound, the Papp at 4 h in “in vitro” (PAMPA, pH 7.4) was 13.7 ± 1 ×10⁻⁶ cm/s. For the same compound, the IC50 at PDE7A1 (setting [1]) is 1180 nM. With `CCOC(=O)CN=c1nc(-c2ccccc2)n(-c2ccccc2)s1` [R1=Ph, R2=Ph, R3=CH2CO2Et (free base), 5-Ethoxycarboximethylimino-2,3-diphenyl-2,5-dihydro-1,2,4-thiadiazole], the “% inhibition of PDE7A at 10 μM” value at PDE7A1 (free bases, at 10 μM) is reported as 6%@10. Regarding `c1ccc(N=c2nc(-c3ccccc3)n(-c3ccccc3)s2)cc1` [R1=Ph, R2=Ph, R3=Ph (free base), 2,3-Diphenyl-5-phenylimino-2,5-dihydro-1,2,4-thiadiazole], on PDE7A1 (1,2,4-thiadiazoles-5-imino substituted as free bases), the IC50 was found to be 3520 nM. As to `CCn1cc(C(=O)O)c(=O)c2cc(F)c(N3CCNCC3)nc21` [Enoxacin, reference compound], the “Pe (10^−6 cm s^−1)” value in the data set “in vitro” (pig, PAMPA, 4 h, pH 7.4) is given as 0.9 ± 0.5 10^−6 cm s^−1. As for `Br.Br.c1ccc(-c2nc(=NCc3cccnc3)sn2-c2ccccc2)cc1` [VP-1.14, 2,3-Diphenyl-5-(3-pyridinylmethylimino)-2,5-dihydro-1,2,4-thiadiazole dihydrobromide], the “Prediction” value in “in vitro” (PAMPA) is reported as “CNS+”. In “in vitro” (PAMPA, pH 7.4), this compound registered a Papp at 4 h of 10.7 ± 0.3 ×10⁻⁶ cm/s. The IC50 at PDE7A1 (setting [1]) is 380 nM. For `c1ccc(-n2sc(=NCc3cccnc3)nc2-c2cccc3ccccc23)cc1` [3-(1-Naphthyl)-2-phenyl-5-(3-pyridylmethylimino)-2,5-dihydro-1,2,4-thiadiazole hydrochloride], at PDE7A1 (setting [2]), the IC50 is 1500 nM. `CN(C)CCCN1c2ccccc2Sc2ccccc21` [Promazine, reference compound] registered a Papp at 4 h in the data set “in vitro” (PAMPA, pH 7.4) of 9.7 ± 1.5 ×10⁻⁶ cm/s. As for `c1ccc(-c2nc(=NCc3cccnc3)sn2-c2cccc3ccccc23)cc1` [2-(1-Naphthyl)-3-phenyl-5-(3-pyridylmethylimino)-2,5-dihydro-1,2,4-thiadiazole dihydrobromide], the IC50 on PDE7A1 (setting [1]) was 870 nM. For the compound `Br.Br.COc1ccc(-n2sc(=NCc3cccnc3)nc2-c2ccccc2)cc1` [VP-1.60, 2-(4-Methoxyphenyl)-3-phenyl-5-(3-pyridinylmethylimino)-2,5-dihydro-1,2,4-thiadiazole dihydrobromide], the “Prediction” value in the data set “in vitro” (PAMPA) is listed as “CNS+”. In “in vitro” (PAMPA, pH 7.4), this compound displayed a Papp at 4 h of 6.2 ± 0.4 ×10⁻⁶ cm/s. Also, the IC50 on PDE7A1 (setting [1]) amounted to 850 nM. In the case of `CCCCCN=c1nc(-c2ccc(OC)cc2)n(-c2ccccc2)s1` [3-(4-Methoxyphenyl)-5-pentylimino-2-phenyl-2,5-dihydro-1,2,4-thiadiazole hydrobromide], on PDE7A1 (setting [1]), the IC50 was determined as 810 nM. For `CC(C)NCC(O)COc1ccc(CC(N)=O)cc1` (stereo not drawn) [Atenolol, reference compound], the “Pe (10^−6 cm s^−1)” value in the data set “in vitro” (pig, PAMPA, 4 h, pH 7.4) is reported as 0.8 ± 1.1 10^−6 cm s^−1. Take `OCCN=c1nc(-c2ccccc2)n(-c2ccccc2)s1` [VP-2.3, 5-(2-Hydroxyethylimino)-2,3-diphenyl-2,5-dihidro-1,2,4-thiadiazole hydrochloride]: the “Prediction” value in the data set “in vitro” (PAMPA) is reported as “CNS+”. Besides, the Papp at 4 h in the data set “in vitro” (PAMPA, pH 7.4) stood at 15 ± 2 ×10⁻⁶ cm/s. Moreover, the IC50 on PDE7A1 (setting [2]) came out at 1970 nM. Take `COc1ccc(-c2nc(=Nc3ccccc3)sn2-c2ccccc2)cc1` [R1=pOMePh, R2=Ph, R3=Ph (hydrobromide)]: on PDE7A1 (setting [1]), the IC50 stood at 4360 nM. In the case of `O=[N+]([O-])c1ccc(-n2sc(=NCc3cccnc3)nc2-c2ccccc2)cc1` [2-(4-Nitrophenyl)-3-phenyl-5-(3-pyridinylmethylimino)-2,5-dihydro-1,2,4-thiadiazole dihydrobromide], the IC50 on PDE7A1 (setting [1]) was 840 nM. Take `CCCCCN=c1nc(-c2ccc(OC)cc2)n(-c2ccccc2)s1` [3-(4-Methoxyphenyl)-5-pentylimino-2-phenyl-2,5-dihydro-1,2,4-thiadiazole hydrochloride]: the IC50 at PDE7A1 (setting [2]) turned out to be 3700 nM. For the compound `Br.COc1ccc(-c2nc(=NCCO)sn2-c2ccccc2)cc1` [VP-1.40, 5-(2-Hydroxyethylimino)-3-(4-methoxyphenyl)-2-phenyl-2,5-dihydro-1,2,4-thiadiazole hydrobromide], in the data set “in vitro” (PAMPA), the “Prediction” value is “CNS+”. The Papp at 4 h in the data set “in vitro” (PAMPA, pH 7.4) was found to be 13.7 ± 0.8 ×10⁻⁶ cm/s. In addition, at PDE7A1 (setting [1]), the IC50 was determined as 1500 nM. Take `Br.OCCN=c1nc(-c2cccc3ccccc23)n(-c2ccccc2)s1` [VP-2.33, 5-(2-Hydroxyethylimino)-3-(1-naphthyl)-2-phenyl-2,5-dihydro-1,2,4-thiadiazole hydrobromide]: in “in vitro” (PAMPA, pH 7.4), the Papp at 4 h turned out to be 10.2 ± 0.6 ×10⁻⁶ cm/s. In addition, the “Prediction” value in the data set “in vitro” (PAMPA-BBB) is given as “CNS+”. The IC50 on PDE7A1 (setting [1]) was found to be 1240 nM.

`Br.CCOC(=O)CN=c1nc(-c2ccc(OC)cc2)n(-c2ccccc2)s1` [VP-1.65, 5-Ethoxycarbonylmethylimino-3-(4-methoxyphenyl)-2-phenyl-2,5-dihydro-1,2,4-thiadiazole hydrobromide]: the “Prediction” value in “in vitro” (PAMPA) is recorded as “CNS+/CNS−”. In addition, in “in vitro” (PAMPA, pH 7.4), the Papp at 4 h was 3.8 ± 0.2 ×10⁻⁶ cm/s. Also, the IC50 on PDE7A1 (setting [1]) was 890 nM. For `CCOC(=O)CN=c1nc(-c2ccccc2)n(-c2ccc([N+](=O)[O-])cc2)s1` [5-Ethoxycarbonylmethylimino-2-(4-nitrophenyl)-3-phenyl-2,5-dihydro-1,2,4-thiadiazole hydrobromide], at PDE7A1 (setting [1]), the half-maximal inhibitory concentration (IC50) was 790 nM. On the same count and under the same terms, to `OCCN=c1nc(-c2ccccc2)n(-c2cccc3ccccc23)s1` [5-(2-Hydroxyethylimino)-2-(1-naphthyl)-3-phenyl-2,5-dihydro-1,2,4-thiadiazole hydrobromide] belongs 2200 nM.

In the case of `CN1C(C(=O)Nc2ccccn2)=C(O)c2ccccc2S1(=O)=O` [Piroxicam, reference compound], in “in vitro” (PBS:DMSO (95:5) as solvent, 4 h at 25° C., mean ± SD of at least 3 independent experiments), the “Pe (10^−6 cm s^−1)” value was 2.2 ± 0.9 10^−6 cm s^−1. The term inhibition denotes the relative decrease from the control value, in per cent. On to `FC(F)(F)c1ccc(-c2nc(=NCc3cccnc3)sn2-c2ccccc2)cc1` [3-(4-Trifluoromethylphenyl)-2-phenyl-5-(3-pyridylmethylimino)-2,5-dihydro-1,2,4-thiadiazole dihydrobromide], for which the inhibition at 10 µM on PDE7A1 (read-out: % inhibition of PDE7A at 10 μM, hydrobromides, at 10 μM) was determined as 87%. Consider `c1ccc(-n2sc(=NCc3cccnc3)nc2-c2cccc3ccccc23)cc1` [3-(1-Naphthyl)-2-phenyl-5-(3-pyridylmethylimino)-2,5-dihydro-1,2,4-thiadiazole dihydrobromide], for which the IC50 on PDE7A1 (setting [1]) worked out at 1080 nM.

`c1ccc(-c2nc(=NCCN3CCOCC3)sn2-c2ccccc2)cc1` [5-(2-Morpholinethylimino)-2,3-diphenyl-2,5-dihydro-1,2,4-thiadiazole dihydrobromide]: on PDE7A1 (setting [1]), the IC50 came to 1590 nM. In the case of `CCCCCN=c1nc(-c2ccccc2)n(-c2ccccc2)s1` [R1=Ph, R2=Ph, R3=n-Pent (hydrobromide), 5-Pentylimino-2,3-diphenyl-2,5-dihydro-1,2,4-thiadiazole hydrobromide], the IC50 on PDE7A1 (setting [1]) worked out at 1440 nM.
